According to patent publication US5593960A, “Cyclic heptapeptide anti-inflammatory agent” (The Regents of the University of California, priority 1995, dated 1997):

Test system: phorbol-induced inflammation (edema) of mouse ears
Assay: Inhibition of Mouse Ear Edema - Standard Protocol (topical, PMA-induced)
Format: in vivo
Conditions: for Inhibition of mouse ear edema: relative to PMA control
Description: Cyclomarin-A was tested by measuring inhibition of phorbol-induced inflammation (edema) of mouse ears. […] The compound is topically applied in acetone to the inside pinnae of the ears of mice in a solution containing the edema-causing irritant, i.e. phorbol 12-myristate 13-acetate (PMA). PMA alone (2 microgram per ear) or in combination with varying amounts of cyclomarin-A was applied to the left ears of (5 mice per treatment group). Acetone was applied to all right ears. After a 3-hour and 20-minute incubation at 23° C., the mice were sacrificed, the ears removed and bores taken and weighed. Edema was measured by subtracting the weight of the right ear (acetone control) from the weight of the left ear (treated). The results were recorded as a percent decrease (inhibition) or percent increase (potentiation) in edema relative to the PMA control group edema.

cyclomarin-A
Inhibition of mouse ear edema (5 ug/ear with PMA 2 microgram per ear): 3.0% | Inhibition of mouse ear edema (10 ug/ear with PMA 2 microgram per ear): 39.0% | Inhibition of mouse ear edema (25 ug/ear with PMA 2 microgram per ear): 57.0% | Inhibition of mouse ear edema (50 ug/ear with PMA 2 microgram per ear): 88.0% | topical anti-inflammatory activity (general statement): exhibit topical anti-inflammatory activity
